Here are results for 23 molecules from patent US9963434B2, “N-arylmethyl sulfonamide negative modulators of NR2A” (LUC THERAPEUTICS, priority 2013, dated 2018).

This experiment has as its target NR1/NR2A (Homo sapiens (Human), UniProt Q05586+Q12879). Kind of experiment: FDSS Ca2+ influx inhibition assay in HEK293 cells expressing NR1/NR2A. It counts as cell-based. Conditions: 3 μM glutamate, 3 μM glycine, 1 mM Ca2+. In short, it runs like this: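 Fluo-8-loaded HEK293 NR1/NR2A cells preincubated 10 min with compound at 10 μM final (0.1% DMSO) in Ca2+/Mg2+-free HBSS with 20 mM HEPES. Stimulated with 3 μM glutamate, 3 μM glycine, 1 mM Ca2+; FDSS recording for 3 min, end/baseline fluorescence ratio compared with MK801.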

The mark [1] stands for this setting: inhibition relative to MK801, read-out: NR2A IC50.

Read-outs that look alike come from different tables or passages of the source.

Chain of NR1/NR2A (Q12879 23-1464, other chains not shown): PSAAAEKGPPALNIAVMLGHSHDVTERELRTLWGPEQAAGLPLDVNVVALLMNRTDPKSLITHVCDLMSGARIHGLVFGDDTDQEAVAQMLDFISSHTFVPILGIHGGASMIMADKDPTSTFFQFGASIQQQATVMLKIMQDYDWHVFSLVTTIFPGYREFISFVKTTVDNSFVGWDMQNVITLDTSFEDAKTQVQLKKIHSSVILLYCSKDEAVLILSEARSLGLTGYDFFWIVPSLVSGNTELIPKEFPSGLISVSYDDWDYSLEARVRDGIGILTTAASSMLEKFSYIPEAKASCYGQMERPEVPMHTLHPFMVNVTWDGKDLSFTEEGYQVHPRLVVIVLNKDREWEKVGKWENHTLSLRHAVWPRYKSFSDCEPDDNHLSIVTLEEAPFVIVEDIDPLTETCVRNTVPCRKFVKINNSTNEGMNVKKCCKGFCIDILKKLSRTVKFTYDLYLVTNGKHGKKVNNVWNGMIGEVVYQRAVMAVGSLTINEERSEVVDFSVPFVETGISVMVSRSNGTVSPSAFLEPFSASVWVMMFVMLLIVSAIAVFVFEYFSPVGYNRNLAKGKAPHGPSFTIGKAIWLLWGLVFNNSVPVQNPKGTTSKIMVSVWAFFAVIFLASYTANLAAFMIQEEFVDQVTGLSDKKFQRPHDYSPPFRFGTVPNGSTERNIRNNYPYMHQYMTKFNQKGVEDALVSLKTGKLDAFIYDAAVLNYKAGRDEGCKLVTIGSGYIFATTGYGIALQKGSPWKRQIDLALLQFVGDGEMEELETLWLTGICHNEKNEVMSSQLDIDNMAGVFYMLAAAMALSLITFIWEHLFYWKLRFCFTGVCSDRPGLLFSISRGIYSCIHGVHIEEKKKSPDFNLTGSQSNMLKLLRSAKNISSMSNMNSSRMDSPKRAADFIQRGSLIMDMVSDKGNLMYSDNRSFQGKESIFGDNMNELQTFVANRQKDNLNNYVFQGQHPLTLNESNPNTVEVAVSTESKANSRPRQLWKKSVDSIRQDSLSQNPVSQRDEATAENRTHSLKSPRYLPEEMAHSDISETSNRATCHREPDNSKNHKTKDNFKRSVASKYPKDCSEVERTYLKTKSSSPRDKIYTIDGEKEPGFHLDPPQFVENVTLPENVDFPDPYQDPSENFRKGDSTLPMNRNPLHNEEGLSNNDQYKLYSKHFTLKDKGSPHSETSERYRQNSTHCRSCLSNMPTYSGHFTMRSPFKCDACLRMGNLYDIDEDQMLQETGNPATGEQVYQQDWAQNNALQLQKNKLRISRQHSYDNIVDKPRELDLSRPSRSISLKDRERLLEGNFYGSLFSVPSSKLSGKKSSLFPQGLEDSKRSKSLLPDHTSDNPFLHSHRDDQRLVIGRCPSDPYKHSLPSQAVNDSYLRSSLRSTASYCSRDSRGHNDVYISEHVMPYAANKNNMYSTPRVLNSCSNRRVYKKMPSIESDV

As to `Cc1nnc(CNC(=O)c2ccc(CNS(=O)(=O)c3ccc(F)c(Cl)c3)nc2)s1` [6-(3-chloro-4-fluorobenzenesulfon-amidomethyl)-N-[(5-methyl-1,3,4-thiadiazol-2-yl)methyl]pyridine-3-carboxamide], the IC50 under setting [1] was found to be 10 µM and the IC50 (read-out: Binned Activity) was over 10 µM.
For `Cc1cnc(CNC(=O)c2ccc(CNS(=O)(=O)c3ccc(F)c(Cl)c3)nn2)cn1` [6-(3-chloro-4-fluorobenzenesulfon-amidomethyl)-N-[(5-methylpyrazin-2-yl)methyl]pyridazine-3-carboxamide], in that order: 10 µM and over 10 µM.
Turning to `Cc1cnc(CNC(=O)c2ccc(CNS(=O)(=O)c3ccc(F)c(Cl)c3)nc2)cn1` [6-(3-chloro-4-fluorobenzenesulfon-amidomethyl)-N-[(5-methylpyrazin-2-yl)methyl]pyridine-3-carboxamide], where the note is “read-out: Binned Activity”, the IC50 lay in the range of 0.1 to 1 µM.
As for `Cc1ccc(CNC(=O)c2ccc(CNS(=O)(=O)c3ccc(F)c(Cl)c3)nc2)s1` [6-(3-chloro-4-fluorobenzenesulfon-amidomethyl)-N-[(5-methylthiophen-2-yl)methyl]pyridine-3-carboxamide], the IC50 was 10 µM under setting [1] and over 10 µM (read-out: Binned Activity).
The matching figures for `COc1ccc(CNC(=O)c2ccc(CNS(=O)(=O)c3ccc(F)c(Cl)c3)nc2)cn1` [6-(3-chloro-4-fluorobenzenesulfon-amidomethyl)-N-[(6-methoxypyridin-3-yl)methyl]pyridine-3-carboxamide]: 10 µM and over 10 µM.
The matching figures for `Cc1cccc(CNC(=O)c2ccc(CNS(=O)(=O)c3ccc(F)c(Cl)c3)nc2)n1` [6-(3-chloro-4-fluorobenzenesulfon-amidomethyl)-N-[(6-methylpyridin-2-yl)methyl]pyridine-3-carboxamide]: 10 µM and over 10 µM.
The matching figures for `Cc1nc(C)c(CNC(=O)c2ccc(CNS(=O)(=O)c3ccc(F)c(Cl)c3)nn2)s1` [6-(3-chloro-4-fluorobenzenesulfon-amidomethyl)-N-[(dimethyl-1,3-thiazol-5-yl)methyl]pyridazine-3-carboxamide]: 10 µM and over 10 µM.
`Cc1nc(C)c(CNC(=O)c2ccc(CNS(=O)(=O)c3ccc(F)c(Cl)c3)nc2)s1` [6-(3-chloro-4-fluorobenzenesulfon-amidomethyl)-N-[(dimethyl-1,3-thiazol-5-yl)methyl]pyridine-3-carboxamide]: the IC50 is, setting by setting: under setting [1], 10 µM; (read-out: Binned Activity) over 10 µM.
For `O=C(NCc1ncccc1C(F)(F)F)c1ccc(CNS(=O)(=O)c2ccc(F)c(Cl)c2)nc1` [6-(3-chloro-4-fluorobenzenesulfon-amidomethyl)-N-{[3-(trifluoromethyl)pyridin-2-yl]methyl}pyridine-3-carboxamide], in that order: 10 µM and over 10 µM.
For `O=C(NCc1ncc(C(F)(F)F)cc1Cl)c1ccc(CNS(=O)(=O)c2ccc(F)c(Cl)c2)nc1` [6-(3-chloro-4-fluorobenzenesulfon-amidomethyl)-N-{[3-chloro-5-(trifluoromethyl)pyridin-2-yl]methyl}pyridine-3-carboxamide], in that order: 10 µM and over 10 µM.
Take `Cc1ncc(CNC(=O)c2ccc(CNS(=O)(=O)c3cn(C)cn3)cn2)s1` [N-[(2-methyl-1,3-thiazol-5-yl)methyl]-5-(1-methyl-1H-imidazole-4-sulfonamidomethyl) pyridine-2-carboxamide]: the IC50 reads like this: under setting [1], 10 µM; (read-out: Binned Activity) over 10 µM.
For `Cc1ncc(CNC(=O)c2ccc(CNS(=O)(=O)c3ccn(C)n3)cn2)s1` [N-[(2-methyl-1,3-thiazol-5-yl)methyl]-5-(1-methyl-1H-pyrazole-3-sulfonamidomethyl) pyridine-2-carboxamide], in that order: 10 µM and over 10 µM.
The matching figures for `Cc1ncc(CNC(=O)c2cnc(CNS(=O)(=O)c3ccc(Oc4ccccc4)nc3)cn2)s1` [N-[(2-methyl-1,3-thiazol-5-yl)methyl]-5-(6-phenoxypyridine-3-sulfonamidomethyl) pyrazine-2-carboxamide]: 10 µM and over 10 µM.
The matching figures for `Cc1ncc(CNC(=O)c2ccc(CNS(=O)(=O)c3ccc(Oc4ccccc4)nc3)cn2)s1` [N-[(2-methyl-1,3-thiazol-5-yl)methyl]-5-(6-phenoxypyridine-3-sulfonamidomethyl) pyridine-2-carboxamide]: 10 µM and over 10 µM.
For `Cc1ncc(CNC(=O)c2ccc(CNS(=O)(=O)c3cccc4cccnc34)cn2)s1` [N-[(2-methyl-1,3-thiazol-5-yl)methyl]-5-(quinoline-8-sulfonamidomethyl) pyridine-2-carboxamide], the IC50 is, setting by setting: under setting [1], 10 µM; (read-out: Binned Activity) over 10 µM.
Turning to `Cc1ncc(CNC(=O)c2cnc(CNS(=O)(=O)c3cccs3)cn2)s1` [N-[(2-methyl-1,3-thiazol-5-yl)methyl]-5-(thiophene-2-sulfonamidomethyl) pyrazine-2-carboxamide], for the setting “read-out: Binned Activity”, the IC50 is 1 to 10 µM.
With `Cc1ncc(CNC(=O)c2ccc(CNS(=O)(=O)c3cccs3)cn2)s1` [N-[(2-methyl-1,3-thiazol-5-yl)methyl]-5-(thiophene-2-sulfonamidomethyl) pyridine-2-carboxamide], under “read-out: Binned Activity”, the IC50 was in the range of 1 to 10 µM.
In the case of `Cc1ncc(CNC(=O)c2cnc(CNS(=O)(=O)c3ccsc3)cn2)s1` [N-[(2-methyl-1,3-thiazol-5-yl)methyl]-5-(thiophene-3-sulfonamidomethyl) pyrazine-2-carboxamide], the IC50 reads like this: under setting [1], 10 µM; (read-out: Binned Activity) over 10 µM.
As for `Cc1ncc(CNC(=O)c2ccc(CNS(=O)(=O)c3ccsc3)cn2)s1` [N-[(2-methyl-1,3-thiazol-5-yl)methyl]-5-(thiophene-3-sulfonamidomethyl) pyridine-2-carboxamide], the IC50 reads like this: under setting [1], 10 µM; (read-out: Binned Activity) over 10 µM.
For `Cc1ncc(CNC(=O)c2ccc(CNS(=O)(=O)c3ccc(-c4csnn4)cc3)cn2)s1` [N-[(2-methyl-1,3-thiazol-5-yl)methyl]-5-[4-(1,2,3-thiadiazol-4-yl)benzenesulfonamido-methyl]pyridine-2-carboxamide], in that order: 10 µM and over 10 µM.
The matching figures for `Cc1ncc(CNC(=O)c2ccc(CNS(=O)(=O)c3ccc(C(F)(F)F)cc3)cn2)s1` [N-[(2-methyl-1,3-thiazol-5-yl)methyl]-5-[4-(trifluoromethyl)benzene-sulfonamidomethyl] pyridine-2-carboxamide]: 10 µM and over 10 µM.
For `Cc1ncc(CNC(=O)c2ccc(CNS(=O)(=O)c3ccc(C(F)(F)F)nc3)cn2)s1` [N-[(2-methyl-1,3-thiazol-5-yl)methyl]-5-[6-(trifluoromethyl)pyridine-3-sulfonamidomethyl] pyridine-2-carboxamide], in that order: 10 µM and over 10 µM.
As to `O=C(NCc1ccc(Cl)c(F)c1)c1ccc(CNS(=O)(=O)c2ccc(F)c(Cl)c2)cn1` [N-[(4-chloro-3-fluorophenyl)methyl]-5-(3-chloro-4-fluorobenzenesulfon-amidomethyl)pyridine-2-carboxamide], the IC50 under setting [1] is 10 µM and the IC50 (read-out: Binned Activity) was over 10 µM.
